# Reference: article PMC3961306, “Comparison of the Cancer Gene Targeting and Biochemical Selectivities of All Targeted Kinase Inhibitors Approved for Clinical Use” (PLoS ONE, 2014)
# Key:
# Test in all cases: Kinase profiling in a biochemical assay panel (mobility shift assays and ELISA), %-inhibition at 1 μM; selectivity entropy
# [1] = biological target: T1, panel of more than 300 wild-type and mutant kinases (313 kinase panel) (Homo sapiens, UniProt Q9H093)
# T1 sequence (Q9H093 1-628): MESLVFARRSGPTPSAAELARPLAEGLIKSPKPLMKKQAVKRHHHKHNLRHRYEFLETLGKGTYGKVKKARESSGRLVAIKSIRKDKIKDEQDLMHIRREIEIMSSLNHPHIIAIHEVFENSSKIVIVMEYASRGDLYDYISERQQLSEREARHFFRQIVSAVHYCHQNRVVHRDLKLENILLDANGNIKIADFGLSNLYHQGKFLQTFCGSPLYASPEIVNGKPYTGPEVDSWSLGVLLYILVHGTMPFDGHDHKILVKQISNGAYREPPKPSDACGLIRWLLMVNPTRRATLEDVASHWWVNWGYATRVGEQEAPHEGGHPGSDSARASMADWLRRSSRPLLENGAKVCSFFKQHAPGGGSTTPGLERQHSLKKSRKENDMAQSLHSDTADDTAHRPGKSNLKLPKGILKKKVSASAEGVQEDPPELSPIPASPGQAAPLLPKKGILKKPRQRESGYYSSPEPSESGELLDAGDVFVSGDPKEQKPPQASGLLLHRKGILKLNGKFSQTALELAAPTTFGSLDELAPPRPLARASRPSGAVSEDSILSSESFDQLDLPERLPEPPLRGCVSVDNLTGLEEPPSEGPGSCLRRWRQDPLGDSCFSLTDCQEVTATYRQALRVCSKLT
# [2] = biological target: panel of more than 300 wild-type and mutant kinases (313 kinase panel) (Homo sapiens, UniProt P05129)
# [3] = biological target: panel of more than 300 wild-type and mutant kinases (313 kinase panel) (Homo sapiens, UniProt Q9H422)
# [4] = biological target: panel of more than 300 wild-type and mutant kinases (313 kinase panel) (Homo sapiens, UniProt P54756)
# [5] = biological target: panel of more than 300 wild-type and mutant kinases (313 kinase panel) (Homo sapiens, UniProt Q13177)
# [6] = biological target: panel of more than 300 wild-type and mutant kinases (313 kinase panel) (Homo sapiens, UniProt Q15349)
# [7] = biological target: panel of more than 300 wild-type and mutant kinases (313 kinase panel) (Homo sapiens, UniProt P22455)
# [8] = biological target: panel of more than 300 wild-type and mutant kinases (313 kinase panel) (Homo sapiens, UniProt P22694)
# [9] = biological target: panel of more than 300 wild-type and mutant kinases (313 kinase panel) (Homo sapiens, UniProt P29597)
# [10] = biological target: T2, panel of more than 300 wild-type and mutant kinases (313 kinase panel) (Homo sapiens, UniProt Q13470)
# T2 sequence (Q13470 1-666): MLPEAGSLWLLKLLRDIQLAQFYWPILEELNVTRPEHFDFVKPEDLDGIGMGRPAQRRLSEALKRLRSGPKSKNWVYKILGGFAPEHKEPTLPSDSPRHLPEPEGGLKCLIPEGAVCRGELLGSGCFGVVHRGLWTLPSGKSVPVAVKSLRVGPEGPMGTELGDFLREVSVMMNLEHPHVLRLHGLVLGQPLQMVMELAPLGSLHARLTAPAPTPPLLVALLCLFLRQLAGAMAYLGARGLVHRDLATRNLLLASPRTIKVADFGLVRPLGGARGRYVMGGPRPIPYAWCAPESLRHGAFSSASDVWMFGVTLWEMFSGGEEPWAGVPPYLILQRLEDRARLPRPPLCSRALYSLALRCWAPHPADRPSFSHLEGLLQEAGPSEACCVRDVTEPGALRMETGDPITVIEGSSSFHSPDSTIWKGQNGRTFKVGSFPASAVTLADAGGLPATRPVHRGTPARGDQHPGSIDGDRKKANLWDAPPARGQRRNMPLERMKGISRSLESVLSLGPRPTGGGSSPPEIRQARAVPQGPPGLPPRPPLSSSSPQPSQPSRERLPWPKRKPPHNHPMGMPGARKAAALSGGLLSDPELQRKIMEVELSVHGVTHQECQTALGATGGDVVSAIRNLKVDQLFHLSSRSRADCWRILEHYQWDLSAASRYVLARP
# [11] = biological target: panel of more than 300 wild-type and mutant kinases (313 kinase panel) (Homo sapiens, UniProt P08922)
# [12] = biological target: panel of more than 300 wild-type and mutant kinases (313 kinase panel) (Homo sapiens, UniProt Q9UPE1)
# [13] = biological target: panel of more than 300 wild-type and mutant kinases (313 kinase panel) (Homo sapiens, UniProt P78368)
# panel of more than 300 wild-type and mutant kinases (313 kinase panel) (Homo sapiens, UniProt P29597), sequence (P29597 whole entry, change not shown): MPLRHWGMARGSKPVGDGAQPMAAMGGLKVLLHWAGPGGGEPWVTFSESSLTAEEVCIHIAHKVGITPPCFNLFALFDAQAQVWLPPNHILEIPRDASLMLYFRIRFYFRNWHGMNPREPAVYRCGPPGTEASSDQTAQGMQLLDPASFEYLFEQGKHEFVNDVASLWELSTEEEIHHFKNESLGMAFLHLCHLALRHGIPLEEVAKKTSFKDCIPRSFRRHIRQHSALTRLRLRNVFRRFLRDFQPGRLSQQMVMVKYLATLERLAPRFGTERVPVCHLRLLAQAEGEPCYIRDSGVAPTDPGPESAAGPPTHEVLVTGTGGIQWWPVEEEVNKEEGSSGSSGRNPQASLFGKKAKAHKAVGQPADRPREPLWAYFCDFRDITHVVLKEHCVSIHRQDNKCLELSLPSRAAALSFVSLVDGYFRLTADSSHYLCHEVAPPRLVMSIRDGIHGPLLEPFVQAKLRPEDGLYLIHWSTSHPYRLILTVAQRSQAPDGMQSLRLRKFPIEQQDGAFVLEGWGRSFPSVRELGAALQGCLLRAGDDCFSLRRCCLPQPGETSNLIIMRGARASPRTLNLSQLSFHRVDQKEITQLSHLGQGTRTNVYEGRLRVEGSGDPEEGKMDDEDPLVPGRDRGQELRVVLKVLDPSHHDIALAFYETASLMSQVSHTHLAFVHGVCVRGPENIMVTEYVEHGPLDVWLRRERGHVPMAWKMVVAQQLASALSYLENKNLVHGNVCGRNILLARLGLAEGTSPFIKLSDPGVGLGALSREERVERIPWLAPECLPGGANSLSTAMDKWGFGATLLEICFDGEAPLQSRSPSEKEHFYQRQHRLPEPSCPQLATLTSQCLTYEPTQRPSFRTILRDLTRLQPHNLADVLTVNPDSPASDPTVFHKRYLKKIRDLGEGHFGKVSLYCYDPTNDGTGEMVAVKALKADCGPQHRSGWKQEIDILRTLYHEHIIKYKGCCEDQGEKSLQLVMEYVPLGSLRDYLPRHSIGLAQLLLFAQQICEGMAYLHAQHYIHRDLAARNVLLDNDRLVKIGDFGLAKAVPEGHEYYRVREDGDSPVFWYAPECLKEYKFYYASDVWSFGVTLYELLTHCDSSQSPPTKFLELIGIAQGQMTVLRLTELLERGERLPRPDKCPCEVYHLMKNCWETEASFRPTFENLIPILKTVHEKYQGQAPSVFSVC
Structure (SMILES),"%-inhibition of NuaK2 ([1]; kinase NuaK2, 1 μM) [%]","%-inhibition of PKCγ ([2]; kinase PKCγ, 1 μM) [%]","%-inhibition of HIPK3 ([3]; kinase HIPK3, compound at 1 μM) [%]","%-inhibition of EPHA5 ([4]; kinase EPHA5, compound at 1 μM) [%]","%-inhibition of PAK2 ([5]; kinase PAK2, 1 μM) [%]","%-inhibition of RSK3 ([6]; kinase RSK3, 1 μM) [%]","%-inhibition of FGFR4 ([7]; kinase FGFR4, compound at 1 μM) [%]","%-inhibition of PKACβ ([8]; kinase PKACβ, 1 μM) [%]","%-inhibition of TYK2 ([9]; kinase TYK2, compound at 1 μM) [%]","%-inhibition of TNK1 ([10]; kinase TNK1, 1 μM) [%]","%-inhibition of ROS ([11]; kinase ROS, 1 μM) [%]","%-inhibition of MSSK1 ([12]; kinase MSSK1, 1 μM) [%]","%-inhibition, CK1γ2 ([13]; kinase CK1γ2, 1 μM compound) [%]",other results
C[C@@H](Oc1cc(-c2cnn(C3CCNCC3)c2)cnc1N)c1c(Cl)ccc(F)c1Cl [crizotinib],87,-0.662,-6,71,5,3.34,0,-2.3,21,41,,,,
CC(C)(C)c1nc(-c2cccc(NS(=O)(=O)c3c(F)cccc3F)c2F)c(-c2ccnc(N)n2)s1 [dabrafenib],4.53,-0.381,65,,,,19,,10,100,8.55,2.55,,
COc1cc2c(Nc3ccc(Br)cc3F)ncnc2cc1OCC1CCN(C)CC1 [vandetanib],-14,-5,-11,89,-2,9,31,-0.0886,-7,23,48,-4.37,-2,
O=S(=O)(c1cccc2cnccc12)N1CCCNCC1 [fasudil],20,10,-0.764,-3.43,-16,,,,6,,4.27,-5.56,18,
C#Cc1cccc(Nc2ncnc3cc(OCCOC)c(OCCOC)cc23)c1 [erlotinib],,,,,,,,,,,,,,"%-inhibition of ROS ([11]; 1 µM): 8.54%; %-inhibition of NuaK2 ([1]; 1 µM): -0.531%; %-inhibition, CK1γ2 ([13]; 1 µM): 8%; %-inhibition of PKCγ ([2]; 1 µM): 8%; %-inhibition of HIPK3 ([3]; 1 µM): 10%; %-inhibition of MSSK1 ([12]; 1 µM): -5%; %-inhibition of EPHA5 ([4]; 1 µM): 38%; %-inhibition of PAK2 ([5]; 1 µM): 5%; %-inhibition of RSK3 ([6]; 1 µM): 9%; %-inhibition of FGFR4 ([7]; 1 µM): 6%; %-inhibition of PKACβ ([8]; 1 µM): -3%; %-inhibition of TYK2 ([9]; 1 µM): -2.7%; %-inhibition of TNK1 ([10]; 1 µM): 44%"
COc1cc2nccc(Oc3ccc(NC(=O)C4(C(=O)Nc5ccc(F)cc5)CC4)cc3)c2cc1OC [cabozantinib],1.63,-4,67,99,-5.44,0.355,8,-4.25,-3.68,89,,32,0.731,
Cc1ccc(C(=O)Nc2ccc(CN3CCN(C)CC3)c(C(F)(F)F)c2)cc1C#Cc1cnc2cccnn12 [ponatinib],-13,-3,27,,,62,98,,66,100,58,17,0.169,
CCN(CC)CCNC(=O)c1c(C)[nH]c(/C=C2\C(=O)Nc3ccc(F)cc32)c1C [sunitinib],,17,,,,,,,,,,,,
Cc1nc(Nc2ncc(C(=O)Nc3c(C)cccc3Cl)s2)cc(N2CCN(CCO)CC2)n1 [dasatinib],3,,,,0.254,,,-1.68,,4.31,,-4.63,20,
Cc1ccc(Nc2nccc(N(C)c3ccc4c(C)n(C)nc4c3)n2)cc1S(N)(=O)=O [pazopanib],2.81,9,3,32,3.51,7,,0.211,5.31,42,94,-2,-0.747,
N#CC[C@H](C1CCCC1)n1cc(-c2ncnc3[nH]ccc23)cn1 [ruxolitinib],41,6,2,,3.37,9,6,,,31,,6,-0.393,%-inhibition of ROS ([11]; 1 µM): 54%; %-inhibition of EPHA5 ([4]; 1 µM): 18%; %-inhibition of PKACβ ([8]; 1 µM): 39%
COc1cc(Nc2c(C#N)cnc3cc(OCCCN4CCN(C)CC4)c(OC)cc23)c(Cl)cc1Cl [bosutinib],87,12,-3.66,,,,2.67,52,-3.37,11,2.77,,-2.3,%-inhibition of RSK3 ([6]; 1 µM): 67%
CN(C)C/C=C/C(=O)Nc1cc2c(Nc3ccc(F)c(Cl)c3)ncnc2cc1O[C@H]1CCOC1 [afatinib],,3,,,,,,,,,,,,
